The record followed here is US20220315534A1, “BETA ADRENERGIC AGONIST AND METHODS OF USING THE SAME” (Curasen Therapeutics, Inc., priority 2019, published 2022).

Like-named read-outs stand apart in the source and are kept apart here.

Assay [1] has as its target T1, β1-adrenergic receptor (B1-AR) (Homo sapiens, UniProt P08588).
T1 construct: expressed in transfected cells
Put plainly: cAMP Gs dynamic HTRF assay, cells expressing β1-adrenergic receptor. The assay is classed as cell-based. As for the experimental part:
(§1) cAMP homogeneous time-resolved fluorescence (HTRF): experimental methods. Compound efficacy is determined using the cAMP Gs dynamic HTRF assay (Cisbio, catalog #62AM4PEC) largely following the manufacturer's instructions, also detailed below.
(§2) Standard serial dilution curves are 10-point, 5-fold dilutions starting from a highest concentration of 10 μM. […] Assay plates are centrifuged at 500×g for 10 seconds. Compounds and IBMX are prepared at 2× final dose to compensate for addition of cells.
(§3) Cell preparation: 1× stimulation buffer, washing PBS (Dulbecco's phosphate-buffered saline, —Mg —Ca; Caisson Labs, catalog #PBL01), assay PBS (Dulbecco's phosphate-buffered saline, +Mg, +Ca; Caisson Labs, catalog #PBL02) and Versene (0.02% EDTA disodium salt solution in PBS without calcium or magnesium; Caisson Labs, catalog #EDL01) are pre-warmed to 37° C. Cells expressing beta-adrenergic receptor were washed in washing PBS to remove growth medium and then released from the surface by incubating with Versene for 5-10 minutes at 37° C. Cells are harvested using assay PBS, counted manually by hemocytometer or by an automated cell counter, pelleted by centrifugation (200×g, 5 minutes) and resuspended in 37° C. 1× stimulation buffer to a final density of […]. 5 μL of the suspended cell solution (7500 cell total) are added to all wells of the 384 well assay plate, the assay plate was covered with an Axygen® plate seal (Corning PCR-SP) and incubated in a humidified 37° C. environment supplemented with 5% CO2 for 30 minutes.
(§4) HTRF reagent addition, reading and data analysis: After 30 minutes of cell stimulation with test compound, the assay plates are centrifuged at 500×g for 10 seconds, and incubation was stopped with the addition of 5 μL cAMP-D2 acceptor, diluted 1:21 in detection and lysis buffer 2 (Cisbio 62CL2FDF) was added to all cells. Subsequently, 5 μL Anti-cAMP-Eu Donor, diluted 1:21 in detection and lysis buffer 2, was added to cells. Plates were sealed and reactions gently ‘vortexed’ at 900 rpm on a Heidolph Titramax 1000 for at least 30 minutes at room temperature. Plates are centrifuged again at 500×g for 10 seconds, and HTRF was measured using a Tecan Spark plate reader at 50 flashes per well. […] Potency estimates (EC50 and pEC50) are derived from the four-parameter nonlinear regression of the concentration-effect curve and an estimate of relative efficacy is determined by comparing the magnitude of the test compound HTRF signal window (min-max dose) with the signal window of the full agonist control, isoproterenol.
(In general: In TR-FRET formats the signal depends on donor and acceptor labels being close together.)

Assay [2] deals with T2, β2-adrenergic receptor (B2-AR) (Homo sapiens, UniProt P07550).
T2 construct: expressed in transfected cells
Description: cAMP Gs dynamic HTRF assay, cells expressing β2-adrenergic receptor. The assay is classed as cell-based. As for the experimental part:
as §1, §2, §3, §4

Setting [3] is: CHO-K1 (HitHunter) cells, read-out: Average pEC50 [Receptor subtype: B1-AR, Cell type: CHO-K1 (HitHunter)] (converted).
[4] abbreviates: CHO-K1 (HitHunter) cells, read-out: Average pEC50 [Receptor subtype: B2-AR, Cell type: CHO-K1 (HitHunter)] (converted).

T1 sequence (P08588 whole entry): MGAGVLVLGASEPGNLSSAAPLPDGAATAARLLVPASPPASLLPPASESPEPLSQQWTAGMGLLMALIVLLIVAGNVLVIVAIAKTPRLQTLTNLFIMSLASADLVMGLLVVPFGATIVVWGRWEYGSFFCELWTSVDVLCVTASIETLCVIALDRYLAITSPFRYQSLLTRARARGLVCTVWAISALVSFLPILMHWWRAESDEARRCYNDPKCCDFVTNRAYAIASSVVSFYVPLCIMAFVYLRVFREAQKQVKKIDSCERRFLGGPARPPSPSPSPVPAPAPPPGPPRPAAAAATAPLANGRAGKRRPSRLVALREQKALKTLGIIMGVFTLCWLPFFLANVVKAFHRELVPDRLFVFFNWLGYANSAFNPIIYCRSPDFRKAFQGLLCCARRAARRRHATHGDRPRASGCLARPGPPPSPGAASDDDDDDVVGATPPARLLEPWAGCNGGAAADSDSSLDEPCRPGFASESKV
T2 sequence (P07550 whole entry): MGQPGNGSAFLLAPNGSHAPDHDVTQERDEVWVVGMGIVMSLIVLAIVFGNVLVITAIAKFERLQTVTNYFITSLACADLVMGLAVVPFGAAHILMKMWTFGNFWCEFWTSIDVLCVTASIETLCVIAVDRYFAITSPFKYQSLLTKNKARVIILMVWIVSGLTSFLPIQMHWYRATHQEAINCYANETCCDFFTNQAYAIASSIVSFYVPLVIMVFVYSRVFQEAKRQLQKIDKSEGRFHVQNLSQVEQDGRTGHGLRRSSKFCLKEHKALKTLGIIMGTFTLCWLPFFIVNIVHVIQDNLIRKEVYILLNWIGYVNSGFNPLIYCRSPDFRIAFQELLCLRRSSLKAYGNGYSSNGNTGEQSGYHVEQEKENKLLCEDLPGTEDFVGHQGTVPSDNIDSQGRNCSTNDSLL

For the compound `CC(C)(C)NC[C@H](O)c1cccc2[nH]cc(F)c12` [Compound 04-112], the EC50 in assay [1] (setting [3]) and in assay [2] (setting [4]) was below 10 nM throughout. Turning to `Cc1nc(N)c(Cl)cc1[C@H](O)CNC(C)(C)C` [Compound 02-9], the values for the EC50 in assay [1] (setting [3]) and in assay [2] (setting [4]) were 100 to 1000 nM and 10 to 100 nM, respectively. On to `CC(C)(C)NC[C@@H](O)c1ccnc2[nH]ncc12` [Compound 04-126], for which the EC50 in assay [1] (setting [3]) and in assay [2] (setting [4]) was above 1000 nM each time. For the compound `CC(C)(C)NC[C@@H](O)c1ccc2cccc(Cl)c2n1` [Compound 04-40], the EC50 in assay [1] (setting [3]) and in assay [2] (setting [4]) was 10 to 100 nM each time. For `CC1(NC[C@H](O)c2cc(F)cc3[nH]ncc23)CC1` [Compound 04-147], the EC50 in assay [1] (setting [3]) and in assay [2] (setting [4]) was below 10 nM in each case. For `COc1ccc(C[C@@H](C)NC[C@H](O)c2cccc3[nH]c4ccccc4c23)cc1` [Compound 04-125], the EC50 is 10 to 100 nM in assay [1] (setting [3]) and below 10 nM in assay [2] (setting [4]).

Regarding `Cc1noc2cccc([C@@H](O)CNC(C)(C)C)c12` [Compound 04-29], the EC50 in assay [1] (setting [3]) was 100 to 1000 nM; in assay [2] (setting [4]), above 1000 nM. For the compound `Cc1cc(N)nc([C@@H](O)CNC(C)(C)C)c1` [Compound 02-13], the EC50 in assay [1] (setting [3]) and in assay [2] (setting [4]) was 10 to 100 nM each time. Turning to `Cc1nc(N)c(C#N)cc1[C@H](O)CNC(C)(C)C` [Compound 02-11], the EC50 in assay [1] (setting [3]) and in assay [2] (setting [4]) was above 1000 nM in each case.

Consider `CC(C)(C)NC[C@@H](O)c1ccc2cccc(F)c2n1` [Compound 04-42], for which the EC50 in assay [1] (setting [3]) and in assay [2] (setting [4]) was 100 to 1000 nM throughout. In the case of `Cn1ncc2c([C@H](O)CNC(C)(C)C)cccc21` [Compound 04-28], the values for the EC50 in assay [1] (setting [3]) and in assay [2] (setting [4]) were 100 to 1000 nM and above 1000 nM, respectively. With `CC(C)(C)NC[C@H](O)c1cccc2c(C#N)ccnc12` [Compound 04-78], the EC50 in assay [1] (setting [3]) is 100 to 1000 nM. Consider `CC(C)(C)NC[C@H](O)c1nccc2[nH]ncc12` [Compound 04-144, (S)-2-(tert-butylamino)-1-(1H-pyrazolo[4,3-c]pyridin-4-yl)ethan-1-ol], for which the EC50 in assay [1] (setting [3]) and in assay [2] (setting [4]) was above 1000 nM each time. For `COc1ccc(CC(C)(C)NC[C@H](O)c2cccc3[nH]c4ccccc4c23)cc1` [Compound 04-55], the results for the EC50 in assay [1] (setting [3]) and in assay [2] (setting [4]) were 10 to 100 nM and below 10 nM, respectively. In the same order, the values of `Cc1cc2c([C@H](O)CNC(C)(C)C)cccc2[nH]c1=O` [Compound 04-17] are 100 to 1000 nM and above 1000 nM. Take `CC(C)(C)NC[C@H](O)c1ccc2c(n1)CCC2` [Compound 04-9]: the EC50 in assay [1] (setting [3]) is 100 to 1000 nM; in assay [2] (setting [4]), 10 to 100 nM. In the same order, the values of `CC(C)(CO)NC[C@H](O)c1cccc2[nH]c(=O)ccc12` [Compound 04-141] are 10 to 100 nM and below 10 nM. In the same order, the values of `CC(C)(C)NC[C@H](O)c1cccc2cccnc12` [Compound 04-94] are below 10 nM and below 10 nM. On to `CC(C)(C)NC[C@H](O)c1cccc2[nH]nc(F)c12` [Compound 04-113], for which the EC50 in assay [1] (setting [3]) and in assay [2] (setting [4]) was below 10 nM each time. As to `Cc1cc([C@@H](O)CNC(C)(C)C)c2cn[nH]c2c1` [Compound 04-109], the EC50 in assay [1] (setting [3]) was 10 to 100 nM; in assay [2] (setting [4]), below 10 nM. In the same order, the values of `CC(C)(C)NC[C@@H](O)c1ccc2cccc(C#N)c2n1` [Compound 04-134] are 10 to 100 nM and 100 to 1000 nM. In the case of `Cc1ccc2[nH]ncc2c1[C@@H](O)CNC(C)(C)C` [Compound 04-138], the EC50 in assay [1] (setting [3]) was above 1000 nM; in assay [2] (setting [4]) it was 100 to 1000 nM. In the same order, the values of `O[C@@H](CNC1(C(F)(F)F)CC1)c1cccc2cccnc12` [Compound 04-67] are above 1000 nM and above 1000 nM. For `CC(C)(C)NC[C@H](O)c1ccc2cccc(C#N)c2n1` [Compound 04-135] the same measures were below 10 nM and below 10 nM. For `CC(C)CNC[C@H](O)c1cccc2[nH]c(=O)ccc12` [Compound 04-143] the same measures were 10 to 100 nM and 10 to 100 nM. For the compound `CC(C)(C)NC[C@H](O)c1ccnc2[nH]ncc12` [Compound 04-127], the figures for the EC50 in assay [1] (setting [3]) and in assay [2] (setting [4]) were 10 to 100 nM and below 10 nM, respectively. Take `Cc1cc([C@@H](O)CNC(C)(C)C)cc2nc[nH]c12` [Compound 04-155]: the figures for the EC50 in assay [1] (setting [3]) and in assay [2] (setting [4]) were above 1000 nM and 100 to 1000 nM, respectively.

For `Cc1cc(N)nc([C@H](O)CNC(C)(C)C)c1` [Compound 02-12], the EC50 in assay [1] (setting [3]) and in assay [2] (setting [4]) was above 1000 nM each time.

Regarding `CC(C)(C)NC[C@H](O)c1cccc2c1C(C)(C)C(=O)N2` [Compound 04-102], the EC50 in assay [1] (setting [3]) and in assay [2] (setting [4]) was 100 to 1000 nM each time.

With `CC(C)(C)NC[C@H](O)c1ccc(F)c2cccnc12` [Compound 04-80], the EC50 in assay [1] (setting [3]) and in assay [2] (setting [4]) was below 10 nM each time.

For `CC(C)(C)NC[C@H](O)c1cccc2[nH]nc(C#N)c12` [Compound 04-151], the figures for the EC50 in assay [1] (setting [3]) and in assay [2] (setting [4]) were below 10 nM and 10 to 100 nM, respectively. In the case of `CC(C)(C)NC[C@H](O)c1ccc2nn[nH]c2c1` [Compound 04-115], the EC50 was 100 to 1000 nM in assay [1] (setting [3]) and 10 to 100 nM in assay [2] (setting [4]). Take `CC(C)(C)NC[C@@H](O)c1cccc2c(C#N)ccnc12` [Compound 04-77]: the EC50 in assay [2] (setting [4]) was above 1000 nM. On to `CC(C)(C)NC[C@@H](O)c1cccc(O)n1` [Compound 02-8], for which the EC50 in assay [1] (setting [3]) and in assay [2] (setting [4]) was above 1000 nM throughout. In the case of `CC(C)(C)NC[C@H](O)c1nc(C(F)(F)F)cc2ccccc12` [Compound 04-91], the EC50 in assay [1] (setting [3]) is above 1000 nM. `Cc1cc(C(O)CNC(C)(C)C)nnc1N` (centres unmarked) [Compound 02-3]: the figures for the EC50 in assay [1] (setting [3]) and in assay [2] (setting [4]) were above 1000 nM and 100 to 1000 nM, respectively. In the same order, the values of `CC(C)(C)NC[C@H](O)c1cccc2c1OCC(=O)N2` [Compound 04-19] are below 10 nM and below 10 nM. On to `CC(C)(C)NC[C@H](O)c1ccc2c(n1)OCCO2` [Compound 04-7], for which the EC50 in assay [1] (setting [3]) and in assay [2] (setting [4]) was 10 to 100 nM throughout. In the case of `CC(C)(C)NC[C@@H](O)c1cccc2nccnc12` [Compound 04-74], the EC50 in assay [1] (setting [3]) and in assay [2] (setting [4]) was above 1000 nM throughout.

As to `CC(C)(C)NC[C@H](O)c1ccc2c(c1)CC(=O)N2` [Compound 04-121], the EC50 in assay [2] (setting [4]) was above 1000 nM.

For `CC(C)(C)NC[C@H](O)c1nccc2[nH]c(=O)ccc12` [Compound 04-5, (S)-5-(2-(tert-butylamino)-1-hydroxyethyl)-1,6-naphthyridin-2(1H)-one], the EC50 in assay [1] (setting [3]) and in assay [2] (setting [4]) was above 1000 nM throughout. Turning to `CC(C)(C)NC[C@H](O)c1cnc(N)c(Cl)c1` [Compound 02-1], the EC50 in assay [1] (setting [3]) is 100 to 1000 nM; in assay [1] (Table 2, cAMP HTRF, read-out: β1 EC50), 100 to 1000 nM; in assay [2] (setting [4]), 10 to 100 nM; in assay [2] (Table 2, cAMP HTRF, read-out: β2 EC50), 10 to 100 nM. In the case of `CC(C)(C)NC[C@H](O)c1cnc2[nH]cnc2c1` [Compound 04-157], the figures for the EC50 in assay [1] (setting [3]) and in assay [2] (setting [4]) were 100 to 1000 nM and 10 to 100 nM, respectively. Consider `CC(C)(C)NC[C@H](O)c1ccc2ncccc2c1` [Compound 04-38], for which the EC50 is 100 to 1000 nM in assay [1] (setting [3]) and below 10 nM in assay [2] (setting [4]). Consider `CC(C)(C)NC[C@@H](O)c1cccc2c(C(F)(F)F)ccnc12` [Compound 04-70], for which, in assay [2] (setting [4]), the EC50 is below 10 nM.

Regarding `CC(C)(C)NC[C@@H](O)c1c(F)ccc2cccnc12` [Compound 04-89], the EC50 in assay [1] (setting [3]) is above 1000 nM. Same read-out and setting: the result for `Cc1noc2cccc([C@H](O)CNC(C)(C)C)c12` [Compound 04-30] reads above 1000 nM.
